The values that follow come from US7087736B1, “Tyrosine DNA phosphodiesterases (TDP) and related polypeptides nucleic acids vectors TDP producing host cells antibodies and methods of use” (priority 1999, dated 2006).

In the assay the test system is Saccharomyces cervisiae strains (parental, enz mutant, HNY243, HNY244). The assay can be described thus: Sensitivity of yeast strains to killing by drug (colony survival after 24 hrs). It is filed as cell-based. From the text: The strains were compared for sensitivity to killing by camptothecin. Despite the dramatic difference in TDP activity, the parental line and the backcrossed enz mutant were insensitive to camptothecin. When combined with a disruption of the RAD9 gene, the camptothecin sensitivity of the low activity mutant (strain HNY244) was increased by a factor of 12 relative to the rad9 derivative of the parental strain HNY243. The same difference was observed after the mutant had undergone two additional rounds of backcrossing. In order to confirm that camptothecin-induced damage was due to topoisomerase trapping, the TOP1 gene of HNY244 was disrupted and survival increased nearly 1,000-fold.
Each pool was separately grown and treated with camptothecin for 24 hours. Cells were grown to near-saturation in medium with glycerol in place of dextrose (YPG) to ensure a starting population with few or no petite derivatives in accordance with standard methods. These cells were resuspended at OD650=0.4 in YPD (bacto-yeast extract, peptone and dextrose standard yeast growth medium), grown for 2 hrs and diluted again in YPD to OD650=0.4. Drug was then added and samples were withdrawn immediately and after 24 hrs at 30° C. After dilution and plating on YPD, surviving colonies were counted after 3-4 days of growth. When plasmid-containing strains were assessed for camptothecin sensitivity, YPD was replaced throughout by uracil-deficient minimal medium to ensure plasmid retention. The survivors were amplified by growth in YPD.

`COS(C)(=O)=O` [methyl methane sulfonate]: the “sensitization of the mutant line to killing” value (low TDP activity mutant line) was “not sensitized”.
As for `CC[C@@]1(O)C(=O)OCc2c1cc1n(c2=O)Cc2cc3ccccc3nc2-1` [camptothecin], the “camptothecin sensitivity of YBR223c disruption strain” value (HNY243 with YBR223c ORF disrupted) is “very similar to that of HNY244”. Besides, the “camptothecin resistance after transformation” value (HNY244 transformed with pNS2 or pAXb) is “improved camptothecin resistance”. Moreover, the “sensitivity to killing by camptothecin” value (backcrossed enz mutant (low TDP activity)) is recorded as “insensitive” and the “sensitivity to killing by camptothecin” value (parental line (normal TDP activity)) is “insensitive”. In addition, where the note is “low activity mutant with RAD9 disruption (strain HNY244)”, the “increase of camptothecin sensitivity relative to rad9 derivative of parental strain HNY243” value came out at 12 factor. For the same compound, where the note is “strain HNY244 with TOP1 disrupted, camptothecin-induced damage”, the “increase of survival after disruption of TOP1 gene” value was ~1,000 fold.
